Series [1] can be described thus: Cytotoxicity against rat PC12D cells assessed as reduction in cell viability at 30 uM by MTT assay. Format: cell-based.
The test system of the next series is PC12D. Description: Activation of CRE-mediated transcription in rat PC12D cells transfected with pCRE-firefly luciferase and pRL-null-renilla luciferase assessed as increase in CRE-driven firefly luciferase activity at 30 uM by dual luciferase reporter gene assay. It counts as functional, cell-based.
Series [2] in a line: Effect on transcription in rat PC12D cells transfected with pCRE-firefly luciferase and pRL-null-renilla luciferase assessed as renilla luciferase activity at 30 uM by dual luciferase reporter gene assay. Format: ADME, cell-based.

Activity data for nine molecules are collected here from ChEMBL document CHEMBL4665850, “Effect of methoxyflavones contained in Kaempferia parviflora on CRE-mediated transcription in PC12D cells” (Bioorg Med Chem Lett, 2020).

Activity calls are given as the source filed them. The rule behind the calls is not given here.

For the molecule `COc1cc(OC)c2c(=O)cc(-c3ccc(OC)c(OC)c3)oc2c1` [TETRAMETHYLLUTEOLIN], the Activity result in series [1] was “Non-Toxic”; in series [2], “Toxic”. Also, in the series on PC12D, the result was Active.

Turning to `COc1cc(O)c2c(=O)c(OC)c(-c3ccccc3)oc2c1`, the Activity result in series [1] and in series [2] was “Non-Toxic” each time. Further, in the series on PC12D, the outcome was inactive.

`COc1cc(O)c2c(=O)c(OC)c(-c3ccc(OC)c(OC)c3)oc2c1` [RETUSIN]: the Activity entry in series [1] and in series [2] was “Non-Toxic” each time. Moreover, in the series with PC12D, the result was inactive.

Turning to `COc1ccc(-c2oc3cc(OC)cc(O)c3c(=O)c2OC)cc1`, the Activity entry in series [1] and in series [2] was “Non-Toxic” throughout. Besides, the outcome in the series with PC12D was inactive.

On to `COc1cc(O)c2c(=O)cc(-c3ccccc3)oc2c1` [TECHTOCHRYSIN], for which the Activity result in series [1] and in series [2] was “Non-Toxic” in each case. In the series on PC12D, the outcome was inactive.

Turning to `COc1ccc(-c2cc(=O)c3c(OC)cc(OC)cc3o2)cc1` [TRIMETHYLAPIGENIN], the Activity result in series [1] is reported as “Non-Toxic”; in series [2], “Toxic”. In the series on PC12D, the outcome was Active.

Turning to `COc1cc(OC)c2c(=O)cc(-c3ccccc3)oc2c1` [CHRYSIN DIMETHYL ETHER], the values for the Activity result in series [1] and in series [2] were “Non-Toxic” and “Toxic”, respectively. In the series on PC12D, the outcome was Active.

With `COc1ccc(-c2cc(=O)c3c(O)cc(OC)cc3o2)cc1` [APIGENIN DIMETHYLETHER], the Activity entry in series [1] and in series [2] was “Non-Toxic” throughout. Further, the result in the series on PC12D was inactive.

In the case of `COc1cc(OC)c2c(=O)c(OC)c(-c3ccc(OC)c(OC)c3)oc2c1`, the Activity result in series [1] and in series [2] was “Non-Toxic” throughout. In the series with PC12D, the outcome was Active.
